This assay addresses T1, HCV NS3 helicase NS3h_1b(con1) (Hepatitis C virus genotype 1b, UniProt Q9WMX2).
T1 construct: truncated C-terminally His-tagged NS3 proteins lacking the N-terminal protease, called NS3h; His-tag (C); made in house
The experiment in a line: MBHA screen of NCI mechanistic set library at 20 μM (percent inhibition, compound interference). The format is biochemical. To be noted: compounds at 20 μM; for Inh. (%) (Inhibition): calculated from Equation 1. The essentials: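 Molecular beacon-based DNA unwinding assay; compounds screened at 20 μM in triplicate, with DMSO-only negative and 500 nM dT20 positive controls. Fluorescence (ex 643/em 670 nm) was read before and 30 min after adding ATP to 1 mM. Percent inhibition came from the change relative to DMSO controls; interference from pre-ATP fluorescence versus DMSO controls.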

Where [1] appears, read: MBHA with DNA substrate, assay interference calculated with Equation 2.
[2] abbreviates: assay interference calculated with Equation 2 (fluorescence vs DMSO-only controls before ATP).

SMILES strings stand for the structures.

T1 sequence (Q9WMX2 1192-1657): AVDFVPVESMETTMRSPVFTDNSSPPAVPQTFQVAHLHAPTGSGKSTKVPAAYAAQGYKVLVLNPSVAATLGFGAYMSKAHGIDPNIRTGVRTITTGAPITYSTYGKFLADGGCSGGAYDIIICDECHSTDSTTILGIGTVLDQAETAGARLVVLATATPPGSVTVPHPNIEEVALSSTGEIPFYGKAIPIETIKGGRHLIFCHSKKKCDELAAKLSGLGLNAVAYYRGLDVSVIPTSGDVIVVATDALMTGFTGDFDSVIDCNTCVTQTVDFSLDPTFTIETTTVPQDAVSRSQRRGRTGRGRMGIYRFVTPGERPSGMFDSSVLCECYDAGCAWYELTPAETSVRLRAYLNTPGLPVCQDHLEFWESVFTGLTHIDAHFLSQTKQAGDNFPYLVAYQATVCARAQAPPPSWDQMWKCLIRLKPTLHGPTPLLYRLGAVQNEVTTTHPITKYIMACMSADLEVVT

`COc1cc([C@H]2c3cc4c(cc3C[C@@H]3COC(=O)[C@H]32)OCO4)cc(OC)c1OC` [Compound 403148]: under setting [1], the “Int.* (Ratio) (Interference)” value is on record as 0.94 Ratio. Besides, the “Inh. (%) (Inhibition)” value (MBHA with DNA substrate) is listed as 16.8%.

For `C[C@@H]1CC[C@H]2C(C)(C)[C@H]3C[C@@]12CC[C@@]3(C)O` [Compound 403883], where the note is “MBHA with a DNA substrate”, the “Inh. (%) (Inhibition)” value is −4.0%. For the same molecule, the “Int.* (Ratio) (Interference)” value under setting [2] is listed as 0.93 Ratio.

For the molecule `Nc1ncnc2c1ncn2C1OC(CO)C(O)C1O` (centres unmarked) [Compound 404241], under setting [1], the “Int.* (Ratio) (Interference)” value is listed as 1.06 Ratio. Also, for the setting “MBHA with DNA substrate, 20 µM”, the “Inh. (%) (Inhibition)” value is recorded as −11.9%.

For `N#CC(=C1C=CC(=NO)C=C1)c1ccc(Cl)cc1` [Compound 405158], the “Inh. (%) (Inhibition)” value (MBHA with a DNA substrate) was 10.9%. Further, under setting [2], the “Int.* (Ratio) (Interference)” value is recorded as 1.09 Ratio.

Turning to `OCC1OC(n2cnc3c(=S)nc[nH]c32)C(O)C1O` (centres unmarked) [Compound 406021], the “Int.* (Ratio) (Interference)” value under setting [1] was 1.10 Ratio. Further, the “Inh. (%) (Inhibition)” value (MBHA with DNA substrate) was 1.7%.

In the case of `O=c1c(O)c(-c2ccc(O)c(O)c2)oc2cc(O)ccc12` [Compound 407010], the “Int.* (Ratio) (Interference)” value under setting [1] is 0.90 Ratio. Moreover, the “Inh. (%) (Inhibition)” value (MBHA with DNA substrate) is listed as 19.4%.

In the case of `CC(=O)OC1CC(n2cc(F)c(=O)[nH]c2=O)OC1CO` (centres unmarked) [Compound 407335], the “Int.* (Ratio) (Interference)” value under setting [1] was 0.88 Ratio. The “Inh. (%) (Inhibition)” value (MBHA with DNA substrate) is on record as 3.5%.

Turning to `CC12CCC(O)CC1CCC1C2CCC2(C)C(C3=CC(=O)OC3)CCC12O` (centres unmarked) [Compound 407806], the “Int.* (Ratio) (Interference)” value under setting [1] is recorded as 1.00 Ratio. In addition, the “Inh. (%) (Inhibition)” value (MBHA with DNA substrate) is −11.1%.

On to `Cc1cc(O)c2c(c1)C(=O)c1cc(O)cc(O)c1C2=O` [Compound 408120], for which the “Inh. (%) (Inhibition)” value (MBHA with a DNA substrate) is on record as −29.4%. Besides, the “Int.* (Ratio) (Interference)” value under setting [2] was 1.05 Ratio.

`CC(C)(O)C=CC(=O)C(C)(O)C1C(O)CC2(C)C3CC=C4C(C=C(O)C(=O)C4(C)C)C3(C)C(=O)CC12C` (centres unmarked) [Compound 521777]: under setting [1], the “Int.* (Ratio) (Interference)” value is 0.90 Ratio. Also, the “Inh. (%) (Inhibition)” value (MBHA with DNA substrate) is 5.8%.

For the molecule `CSC1SC[C@H]2C(=O)N(C)[C@@H](C(C)C)C(=O)OC[C@@H](NC(=O)c3cnc4ccccc4n3)C(=O)N[C@@H](C)C(=O)N(C)[C@@H]1C(=O)N(C)[C@@H](C(C)C)C(=O)OC[C@@H](NC(=O)c1cnc3ccccc3n1)C(=O)N[C@@H](C)C(=O)N2C` (some centres unmarked) [Compound 526417], under setting [1], the “Int.* (Ratio) (Interference)” value is 0.86 Ratio. The “Inh. (%) (Inhibition)” value (MBHA with DNA substrate) was 55.2%.

With `N[C@@H](CN(O)N=O)C(=O)O` [Compound 529469], the “Int.* (Ratio) (Interference)” value under setting [1] is given as 0.89 Ratio. In addition, the “Inh. (%) (Inhibition)” value (MBHA with DNA substrate) is 18.9%.

With `CC(C)c1ccc2nc3ccc(C(=O)NCCN(C)C)cn3c(=O)c2c1` [Compound 600305], the “Int.* (Ratio) (Interference)” value under setting [1] is 0.91 Ratio. In addition, the “Inh. (%) (Inhibition)” value (MBHA with DNA substrate) is 26.6%.

Regarding `CCCCCn1cc2c3c(cccc31)C1C=C(C)CN(C)[C@@H]1C2.Cc1ccc(C(=O)OC(C(=O)O)C(OC(=O)c2ccc(C)cc2)C(=O)O)cc1` (centres unmarked) [Compound 600681], the “Int.* (Ratio) (Interference)” value under setting [1] was 0.95 Ratio. Also, the “Inh. (%) (Inhibition)” value (MBHA with DNA substrate) was −19.1%.

Regarding `CCN(CC)CCOc1ccccc1/C=C/c1noc2ccccc12.Cl` [Compound 601101], the “Int.* (Ratio) (Interference)” value under setting [1] is 0.97 Ratio. For the setting “MBHA with DNA substrate”, the “Inh. (%) (Inhibition)” value is −7.8%.

For `Cc1nc2c(nc1C)C(=O)c1ccccc1C2=O` [Compound 602617], the “Int.* (Ratio) (Interference)” value under setting [1] is listed as 0.97 Ratio. In addition, for the setting “MBHA with DNA substrate”, the “Inh. (%) (Inhibition)” value is given as 3.9%.

As to `CN(C)c1cccc(F)c1C(=O)NC(=O)Nc1ccc(Cl)cc1` [Compound 603108], the “Int.* (Ratio) (Interference)” value under setting [1] is reported as 1.03 Ratio. Also, the “Inh. (%) (Inhibition)” value (MBHA with DNA substrate) was −8.6%.

On to `C[n+]1c(-c2ccc(/C=C/C=N/NC(=O)c3ccc(C(=O)N/N=C/C=C/c4ccc(-c5cn6ccccc6[n+]5C)cc4)cc3)cc2)cn2ccccc21.Cc1ccc(S(=O)(=O)O)cc1` [Compound 603169], for which, under setting [1], the “Int.* (Ratio) (Interference)” value is listed as 0.22 Ratio. Besides, the “Inh. (%) (Inhibition)” value (MBHA with DNA substrate) is reported as 26.2%.

Regarding `C[Si](C)(CN)CN.[Cl][Pt][Cl]` [Compound 603577], the “Int.* (Ratio) (Interference)” value under setting [1] is given as 0.93 Ratio. The “Inh. (%) (Inhibition)” value (MBHA with DNA substrate) is 13.5%.

With `Cc1ccc(S(=O)(=O)NC(=O)NC2=NC(C)(C)N(c3ccc(Cl)c(Cl)c3)C(N)=N2)cc1` [Compound 603624], the “Inh. (%) (Inhibition)” value (MBHA with a DNA substrate) is on record as 7.5%. In addition, the “Int.* (Ratio) (Interference)” value under setting [2] is listed as 0.92 Ratio.

Regarding `O=c1[nH]c2ccc(O)cc2o1` [Compound 603719], the “Inh. (%) (Inhibition)” value (MBHA with a DNA substrate) is given as −5.7%. Further, under setting [2], the “Int.* (Ratio) (Interference)” value is 1.20 Ratio.

For `C[C@H](CSC(=O)c1ccccc1)C(=O)N1c2ccccc2C[C@H]1C(=O)O` [Compound 604535], under setting [1], the “Int.* (Ratio) (Interference)” value is on record as 1.08 Ratio. Under “MBHA with DNA substrate”, the “Inh. (%) (Inhibition)” value was 1.0%.

Take `CCCCCCCCCCCCCCCCOP(=O)([O-])OCC[N+](C)(C)C` [Compound 605583]: the “Int.* (Ratio) (Interference)” value under setting [1] was 0.89 Ratio. The “Inh. (%) (Inhibition)” value (MBHA with DNA substrate) is reported as −10.9%.

As for `Cl.Nc1ccc2cc3ccc(N)cc3nc2c1` [Compound 605756], the “Int.* (Ratio) (Interference)” value under setting [1] was 0.33 Ratio. Further, the “Inh. (%) (Inhibition)” value (MBHA with DNA substrate) is 14.1%.

Regarding `CC(C)(C)OC(=O)NC(Cc1ccccc1)C(=O)OCN1C(=O)C2C3C=CC(C2C1=O)C1C2C(=O)N(COC(=O)C(Cc4ccccc4)NC(=O)OC(C)(C)C)C(=O)C2C31` (centres unmarked) [Compound 607316], the “Int.* (Ratio) (Interference)” value under setting [1] was 0.97 Ratio. For the setting “MBHA with DNA substrate”, the “Inh. (%) (Inhibition)” value was −1.8%.

For `O=[N+]([O-])c1ccc(-c2cn(-c3ccc(Cl)cc3)cn2)cc1` [Compound 610744], under setting [1], the “Int.* (Ratio) (Interference)” value was 0.83 Ratio. Where the note is “MBHA with DNA substrate”, the “Inh. (%) (Inhibition)” value is 21.5%.

Consider `COc1cc(C(O)CCBr)c(OC)cc1C` (centres unmarked) [Compound 611750], for which the “Int.* (Ratio) (Interference)” value under setting [1] is listed as 0.94 Ratio. In addition, the “Inh. (%) (Inhibition)” value (MBHA with DNA substrate) was −8.1%.

For the molecule `C/C1=C\[C@H](C)C[C@H](C)OC(=O)CC(c2ccc(O)cc2)NC(=O)[C@@H](Cc2c(Br)[nH]c3ccccc23)N(C)C(=O)[C@H](C)NC(=O)[C@@H](C)C1` (some centres unmarked) [Compound 613009], under “MBHA with a DNA substrate”, the “Inh. (%) (Inhibition)” value is recorded as −21.7%. The “Int.* (Ratio) (Interference)” value under setting [2] is 0.94 Ratio.

Turning to `CC(=O)Oc1ccc(C(c2ccc(OC(C)=O)cc2)c2ccccn2)cc1` [Compound 614826], the “Inh. (%) (Inhibition)” value (MBHA with a DNA substrate) is recorded as −4.8%. Moreover, the “Int.* (Ratio) (Interference)” value under setting [2] is listed as 1.06 Ratio.

For the molecule `CC1(C)C(O)OC(O)C1(C)C` (centres unmarked) [Compound 614928], under setting [1], the “Int.* (Ratio) (Interference)” value is 0.99 Ratio. Besides, the “Inh. (%) (Inhibition)” value (MBHA with DNA substrate) was 19.1%.

Consider `C=C(C#N)C(=O)OCC(CC)CC.C=C(C#N)C(=O)OCC(CC)CC.CS(C)=O.CS(C)=O.Nc1c(N=Nc2ccc(-c3ccc(N=Nc4cc(S(=O)(=O)[O-])c5ccccc5c4N)cc3)cc2)cc(S(=O)(=O)[O-])c2ccccc12.[Pt+2]` [Compound 615593], for which, under setting [1], the “Int.* (Ratio) (Interference)” value is recorded as 0.91 Ratio. Further, for the setting “MBHA with DNA substrate”, the “Inh. (%) (Inhibition)” value is −17.7%.

On to `OC(CBr)C(O)C(O)C(O)CBr` (centres unmarked) [Compound 616232], for which the “Int.* (Ratio) (Interference)” value under setting [1] is reported as 1.02 Ratio. Further, the “Inh. (%) (Inhibition)” value (MBHA with DNA substrate) is listed as −0.6%.

`CC(C)(C)[Si](C)(C)OCC1CCC(n2cnc3c(N)ncnc32)O1` (centres unmarked) [Compound 616355]: the “Int.* (Ratio) (Interference)” value under setting [1] was 1.01 Ratio. Also, the “Inh. (%) (Inhibition)” value (MBHA with DNA substrate) is listed as −12.6%.

In the case of `CCCCCC/C=C\CCCCCCCCCc1cccc(OC)c1O` [Compound 617540], under “MBHA with a DNA substrate”, the “Inh. (%) (Inhibition)” value was −28.4%. Besides, under setting [2], the “Int.* (Ratio) (Interference)” value is 1.11 Ratio.

The values are drawn from patent US9464064B2, “HCV helicase inhibitors and methods of use thereof” (University of Kansas, priority 2011, dated 2016).
